In Sander's compilation of Henry's law constants (doi:10.1016/0304-3894(88)85057-x):

Assay: Henry solubility constant Hcp at 298.15 K (mol/(m3 Pa))
Settings: reference: Ashworth et al. (1988)

Row | Structure (SMILES) | Henry solubility constant Hcp
1 | CCc1ccccc1 [ethylbenzene] | 0.0012
2 | Cc1ccc(O)c(C)c1 [1-hydroxy-2,4-dimethylbenzene] | 0.0019
3 | CCCC(C)C [2-methylpentane] | 1.3e-05
4 | CCCCCC [hexane] | 9.9e-06
5 | Cc1cc(C)cc(C)c1 [1,3,5-trimethylbenzene] | 0.0014
6 | CCCCCCCCC [nonane] | 2.3e-05
7 | ClCCl [dichloromethane] | 0.0034
8 | CC(Cl)CCl (centres undefined) [1,2-dichloropropane] | 0.0038
9 | CCCl [chloroethane] | 0.00079
10 | CC(C)c1ccccc1 [(2-propyl)-benzene] | 0.0016
11 | ClC(Cl)(Cl)C(Cl)(Cl)Cl [hexachloroethane] | 0.0012
12 | ClC=C(Cl)Cl [trichloroethene] | 0.00095
13 | C=CCl [chloroethene] | 0.0004
14 | ClCC(Cl)Cl [1,1,2-trichloroethane] | 0.01
15 | ClC(Cl)(Cl)Cl [tetrachloromethane] | 0.00033
16 | C1CCC2CCCCC2C1 (centres undefined) [decahydronaphthalene] | 7.2e-05
17 | Clc1cccc(Cl)c1 [1,3-dichlorobenzene] | 0.003

Row | Structure (SMILES) | Henry solubility constant Hcp
18 | ClC(Cl)=C(Cl)Cl [tetrachloroethene] | 0.00054
19 | Cc1ccccc1C [1,2-dimethylbenzene] | 0.0019
20 | Cc1cccc(C)c1 [1,3-dimethylbenzene] | 0.0013
21 | ClC(Cl)C(Cl)Cl [1,1,2,2-tetrachloroethane] | 0.022
22 | Clc1ccc(Cl)cc1 [1,4-dichlorobenzene] | 0.0031
23 | ClC(Br)Br [dibromochloromethane] | 0.0085
24 | CC(=O)CC(C)C [4-methyl-2-pentanone] | 0.022
25 | CCCc1ccccc1 [propylbenzene] | 0.0009
26 | Clc1ccccc1 [chlorobenzene] | 0.0025
27 | c1ccc2c(c1)CCCC2 [1,2,3,4-tetrahydronaphthalene] | 0.0051
28 | c1ccccc1 [benzene] | 0.0018
29 | C1CCCCC1 [cyclohexane] | 5.5e-05
30 | CC(Cl)(Cl)Cl [1,1,1-trichloroethane] | 0.00057
31 | Cc1ccccc1 [methylbenzene] | 0.0015
32 | C=C(Cl)Cl [1,1-dichloroethene] | 0.00037
33 | COCCO [2-methoxyethanol] | 0.00022
34 | Cc1ccc(C)cc1 [1,4-dimethylbenzene] | 0.0013
